Source: patent US5919799A, “Imidazothiazole compound” (Nikken Chemicals Co., Ltd., priority 1995, dated 1999)
Counter-ions that a name gives are not always drawn.

How the values were obtained:
[1] = tested on: VJ-300 cells (multidrug resistant clones of KB cells); experiment: In vitro suppression of proliferation (colony formation) of VJ-300 cells by co-administration with doxorubicin; type: cell-based, Human; settings: ADM alone (Control); relative to KB = 1
Experimental: In Vitro Test of Effect of Suppression of Proliferation of Cancer Cells by Co-Administration with Doxorubicin
(§1) Human epipharynx cancer derived cancer KB cells (sensitive cells) and their multidrug resistant clones VJ-300 cells (resistant cells) were used as test cells. As the incubation solution, an Eagle MEM medium (made by Nissui Seiyakusha) containing 10% fetal calf serum (made by Flow Laboratories Co.) and 0.292 mg/ml L-glutamine (made by Flow Laboratories Co.) was used. The action overcoming resistance to an anti-neoplastic agent and effect in enforcing the effect of an anti-neoplastic agent obtained through co-administration of the anti-neoplastic agent doxorubicin (adriamycin, ADM) and the test compounds were tested as follows:
The test cells were suspended in the incubation medium and adjusted to a cell density of about 200 cells/ml. 2 ml portions of the cell suspension were placed in petri dishes and incubated in a carbon dioxide gas incubator (5% CO2, 95% air) at 37° C. for 24 hours. […] After the end of the incubation, the samples were fixed by methanol, Giemsa staining was performed, the number of colonies in each dish was counted, and a volume reaction curve was prepared. […]

[2] = tested on: VJ-300 cells (multidrug resistant clones of KB cells); experiment: In vitro suppression of proliferation of VJ-300 cells by co-administration with vincristine; type: cell-based, Human; settings: co-administered VCR and test compound (1 μg/ml), relative to VCR alone in KB = 1
Experimental: as §1, with “As” for “Human epipharynx cancer derived cancer KB cells (sensitive cells) and their multidrug resistant clones VJ-300 cells (resistant cells) were used as test cells. As”
The test cells were suspended in the incubation medium and adjusted to a cell density of about 200 cells/ml. 2 ml portions of the cell suspension were placed in petri dishes and incubated in a carbon dioxide gas incubator (5% CO2, 95% air) at 37° C. for 24 hours. Next, predetermined concentrations of aqueous ADM solutions and dimethyl sulfoxide (DMSO) solutions of predetermined concentrations of the test compounds were added into 5 to 10 μl portions, then incubation was continued for 7 days. After the end of the incubation, the samples were fixed by methanol, Giemsa staining was performed, the number of colonies in each dish was counted, and a volume reaction curve was prepared. This was used to calculate the ADM concentration at a 50% cell survival rate (LD50) and judge the action overcoming resistance to an anti-neoplastic agent and effect in enhancing the effect of an anti-neoplastic agent.
The LD50 concentration of ADM in the ADM control group for KB cells was shown as the resistance degree "1" and the other LD50 concentrations were indexed against this to calculate the resistance degrees. In Table 2, ADM alone (control) is the group administered ADM alone, ADM+Compound 1 is the group co-administered ADM and Compound 1 (1 μg /ml) and so on down to ADM+Compound 19 which is the group co-administered ADM and Compound 19 (1 μg /ml).
A volume reaction curve was prepared and the resistance calculated. In the Tables, VCR alone (control) is the group administered VCR alone, VCR+Compound 1 is the group co-administered VCR and Compound 1(1 μg /ml) and so on down to VCR+Compound 16 which is the group co-administered VCR and Compound 16 (1 μg/ml).

[3] = tested on: VCR resistant murine leukemic (P388/VCR) cells; experiment: In vivo effect of overcoming resistance to vincristine in VCR resistant murine leukemia cell bearing mice (intraperitoneal); design: species or system CDF1 male mice; settings: VCR (100 μg/kg) + compound (100 mg/kg), i.p., 5 days
Experimental: (a) 10^6 VCR resistant murine leukemic (P388/VCR) cells were transplanted intraperitoneally to groups of six CDF1 male mice. The compound of the present invention (10 or 100 mg/kg) was suspended in 0.5% sodium carboxymethyl cellulose containing 0.1% Tween 80, while the VCR (100 μg/kg) was dissolved in physiological saline. These were each administered intraperitoneally over 5 days and the mice observed to find the days of survival and the rate of prolongation of life with respect to the control (T/C). The effect in overcoming resistance to an anti-neoplastic agent (T/V) was found from the following formula:
Effect in overcoming resistance to anti-neoplastic agent (T/V%)=(Rate of prolongation of life when co-administering VCR and compound of present invention (T/C%))/(Rate of prolongation of life by VCR alone
In Table 5, "Control" is the non-administered group, VCR alone is the group administered just VCR (100 μg /kg), VCR+Compound 1 is the group co-administered VCR (100 μg /kg) and Compound 1 (100 mg/kg) and so on to VCR+Compound 14* which is the group co-administered VCR (100 μg /kg) and Compound 14 (10 mg/kg).

[4] = tested on: VCR resistant murine leukemia (P388/VCR) cells; experiment: In vivo effect of overcoming resistance with etoposide (VP-16) in P388/VCR bearing mice (intravenous); design: species or system CDF1 male mice; settings: VP-16 (3 mg/kg) + compound (40 mg/kg), i.v., five days; for Effect overcoming resistance (T/V %): vs VP-16 alone; for Rate of prolongation of life (T/C %): vs non-administered control
Experimental: (b) Separately, groups of six CDF1 male mice were intravenously given transplants of 1.2×10^5 VCR resistant murine leukemia (P388/VCR) cells. The compound of the present invention (20 or 40 mg/kg) was dissolved in 0.01N hydrochloric acid. Etoposide (VP-16, 3 mg/kg) was dissolved in a physiological saline solution. These were administered intravenously for five days and the days of survival were found. In the same way as (a), the rate of prolongation of life with respect to the control (T/C) and the effect in overcoming the resistance to an anti-neoplastic agent (T/V) were found. In Table 6, the control is the non-administered group, VP-16 alone is the group administered VP-16 (3 mg/kg) and VP-16+Compound 5 is the group co-administered VP-16 (3 mg/kg) and Compound 5 (40 mg/kg) and so on to VP-16+Compound 16 which is the group co-administered VP-16 (3 mg/kg) and Compound 16 (40 mg/kg).

[5] = Acute toxicity test (a), intraperitoneal, three animals per group; settings: mouse, in vivo, ip, ICR male mice, up to 7 days after administration
Text: (§2) (a) Animals used: ICR male mice (Charles River Japan), 7 to 8 weeks old, were used three to a group.
(§3) Test method: The compound of the present invention was suspended in 0.5% sodium carboxymethyl cellulose(CMC-Na) containing 0.1% Tween 80. […] The survival of the animals was examined up to 7 days after administration, then the Van Der Wearder area method was used to calculate the LD50 value.

[6] = Acute toxicity test (b), intraperitoneal, five mice per group; settings: mouse, in vivo, ip, groups of five, 1000 mg to 250 mg/kg
Experimental: as §2, §3
(b) Groups of five mice were tested in the same way as in (a) except that the drug was administered intraperitoneally from 1000 mg by a rate of 1/√2 until 250 mg/kg.

SMILES	Resistance at ADM, VJ-300 (resistance degree) [1]	Resistance with VCR, VJ-300 (resistance degree) ([2]; Table 3)	Days of survival [3]	Effect overcoming resistance (T/V %) ([3]; vs VCR alone)	Rate of prolongation of life (T/C %) ([3]; vs non-administered control)	Days of survival [4]	Effect overcoming resistance (T/V %) [4]	Rate of prolongation of life (T/C %) [4]	LD50 at 168 h [5]	Resistance with VCR, VJ-300 (resistance degree) ([2]; Table 4)	LD50 at 168 h [6]
COc1cccc2c1C(=O)c1c(O)c3c(c(O)c1C2=O)C[C@@](O)(C(=O)CO)C[C@@H]3O[C@H]1C[C@H](N)[C@H](O)[C@H](C)O1 [ADM, doxorubicin]	46.7	–	–	–	–	–	–	–	–	–	–
CN1CCCC(C(=O)NN=Cc2c(-c3ccccc3)nc3sc4c(n23)CCCC4)C1 (stereo not shown) [Compound 5, 5,6,7,8-tetrahydro-2-phenyl-3-(N-methyl-3-piperidylcarbonylaminoiminomethyl)imidazo[2,1-b]benzothiazole]	–	1.2	14.38 days	130%	138%	14.0 days	125%	136%	604 mg/kg	–	–
CCCN1CCCC(C(=O)NN=Cc2c(-c3ccccc3)nc3sc4c(n23)CCCC4)C1 (stereo not shown) [Compound 12, 5,6,7,8-tetrahydro-2-phenyl-3-[N-propyl-3-piperidylcarbonylaminoiminomethyl]imidazo[2,1-b]benzothiazole hydrochloride]	–	–	–	–	–	13.2 days	118%	128%	–	1.3	592 mg/kg
CN1CCCC(C(=O)NN=Cc2c(-c3ccccc3)nc3sc4ccccc4n23)C1 (stereo not shown) [Compound 15, 2-phenyl-3-[N-methyl-3-piperidylcarbonylaminoiminomethyl]imidazo[2,1-b]benzothiazole hydrochloride]	–	–	–	–	–	13.0 days	116%	126%	–	3.1	≥ 1000 mg/kg
